The values below come from ChEMBL document CHEMBL1146832, “N-Benzylindole-2-carboxylic acids: potent functional antagonists of the CCR2b chemokine receptor” (Bioorg Med Chem Lett, 2004).

Chain of C-C chemokine receptor type 2 (P41597 whole entry): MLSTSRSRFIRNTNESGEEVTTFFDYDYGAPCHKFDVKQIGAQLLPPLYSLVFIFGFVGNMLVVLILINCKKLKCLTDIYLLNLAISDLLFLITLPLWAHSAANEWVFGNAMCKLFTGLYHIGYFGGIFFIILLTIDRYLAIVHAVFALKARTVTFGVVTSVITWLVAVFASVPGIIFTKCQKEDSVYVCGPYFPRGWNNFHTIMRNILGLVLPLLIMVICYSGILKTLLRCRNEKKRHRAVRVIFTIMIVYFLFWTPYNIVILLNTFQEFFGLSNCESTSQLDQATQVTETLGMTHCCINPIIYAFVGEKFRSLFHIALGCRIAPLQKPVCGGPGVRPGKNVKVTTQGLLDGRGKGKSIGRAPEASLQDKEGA

The assay addresses C-C chemokine receptor type 2 (Homo sapiens, UniProt P41597). The experiment in a line: Inhibition of human C-C chemokine receptor type 2.
As to `O=C(O)c1cc2ccc(-c3ccccc3)cc2n1Cc1ccc(Cl)c(Cl)c1`, half-maximal inhibition (IC50) required 12300 nM. That is a double-digit micromolar value. For `O=C(O)c1cc2cc(C(F)(F)F)ccc2n1Cc1ccc(Cl)c(Cl)c1` the value was 170 nM. As for `Nc1ccc2c(c1)cc(C(=O)O)n2Cc1ccc(Cl)c(Cl)c1`, the figure is 500 nM; as for `O=C(O)c1c(C(=O)O)n(Cc2ccc(Cl)c(Cl)c2)c2ccccc12`, 96 nM; as for `O=C(O)c1cc2c(C(F)(F)F)cccc2n1Cc1ccc(Cl)c(Cl)c1`, 1190 nM. As for `COc1ccc(Cn2c(C(=O)O)cc3cc(Cl)ccc32)cc1`, the figure is 5770 nM; as for `Clc1ccc(Cn2c(-c3nn[nH]n3)cc3ccccc32)cc1Cl`, 1030 nM.

As to `O=C(O)c1cc2cc(Cl)ccc2n1Cc1ccc(OCc2ccccc2)cc1`, the IC50 is greater than 50000 nM.

In turn, `O=C(O)c1cc2cccc(C(F)(F)F)c2n1Cc1ccc(Cl)c(Cl)c1` came in with an IC50 of 1270 nM. This lies in the single-digit micromolar range. For `O=C(O)c1cc2c(-c3ccccc3)cccc2n1Cc1ccc(Cl)c(Cl)c1` the value was 640 nM; for `O=C(O)c1cc2cc(Cl)ccc2n1Cc1ccc(Cl)c(Cl)c1`, 110 nM; for `O=C(O)c1cc2ccccc2n1C(=O)c1ccc(Cl)c(Cl)c1`, greater than 50000 nM. As for `O=C(O)c1cc2ccc(Cl)cc2n1Cc1ccc(Cl)c(Cl)c1`, the figure is 340 nM; as for `O=C(O)c1cc2cc(F)ccc2n1Cc1ccc(Cl)c(Cl)c1`, 56 nM. For `O=C(O)c1cc2c([N+](=O)[O-])cccc2n1Cc1ccc(Cl)c(Cl)c1` the value was 1310 nM.

In turn, `O=C(O)c1cc2ccc(C(F)(F)F)cc2n1Cc1ccc(Cl)c(Cl)c1` gave a half-inhibitory concentration (IC50) of 1050 nM. This IC50 and that of the molecule before are within 1.5-fold of each other. For `Cc1ccc(Cn2c(C(=O)O)cc3cc(Cl)ccc32)cc1Cl` the value was 120 nM. Consider `O=C(O)c1c(Cl)c2ccccc2n1Cc1ccc(Cl)c(Cl)c1`, for which half-maximal inhibition (IC50) required 260 nM. For `Nc1ccc2cc(C(=O)O)n(Cc3ccc(Cl)c(Cl)c3)c2c1` the value was 12600 nM. In turn, `O=C(O)c1cc2cccc([N+](=O)[O-])c2n1Cc1ccc(Cl)c(Cl)c1` showed an IC50 of 10800 nM. As for `O=C(NS(=O)(=O)c1ccccc1)c1cc2ccccc2n1Cc1ccc(Cl)c(Cl)c1`, the figure is 4780 nM; as for `O=C(O)c1cccc(Cn2c(C(=O)O)cc3cc(Cl)ccc32)c1`, 27000 nM. The molecule `COc1cccc2c1cc(C(=O)O)n2Cc1ccc(Cl)c(Cl)c1` had an IC50 of 280 nM. This IC50 lies about 96-fold lower than the previous one. For `O=C(O)c1cc2ccccc2n1S(=O)(=O)c1ccc(Cl)c(Cl)c1`, inhibition was half-maximal at 1020 nM (IC50). As for `CS(=O)(=O)c1cccc2c1cc(C(=O)O)n2Cc1ccc(Cl)c(Cl)c1`, the figure is 3880 nM; as for `COc1ccc2c(c1)cc(C(=O)O)n2Cc1ccc(Cl)c(Cl)c1`, 410 nM. In the case of `O=C(O)c1cc2ccccc2n1Cc1ccccc1`, half-maximal inhibition (IC50) required 1700 nM. Turning to `O=C(O)c1cc2c(Cl)cccc2n1Cc1ccc(Cl)c(Cl)c1`, the IC50 is 150 nM. For `COc1ccc2cc(C(=O)O)n(Cc3ccc(Cl)c(Cl)c3)c2c1` the value was 2300 nM; for `CS(=O)(=O)NC(=O)c1cc2ccccc2n1Cc1ccc(Cl)c(Cl)c1`, 6090 nM.

`O=C(O)c1cc2ccccc2n1Cc1ccc(Cl)c(Cl)c1` yielded an IC50 of 230 nM. For `O=C(O)c1cc2cc(-c3ccccc3)ccc2n1Cc1ccc(Cl)c(Cl)c1` the value was 8600 nM; for `O=C(O)c1cc2cc([N+](=O)[O-])ccc2n1Cc1ccc(Cl)c(Cl)c1`, 390 nM. For `O=C(NS(=O)(=O)C(F)(F)F)c1cc2cc(F)ccc2n1Cc1ccc(Cl)c(Cl)c1` the value was 370 nM. As for `O=C(O)c1cc2ccccc2n1Cc1cccc(Cl)c1`, the figure is 1130 nM; as for `COc1cccc2cc(C(=O)O)n(Cc3ccc(Cl)c(Cl)c3)c12`, 1210 nM; as for `O=C(O)c1cc2ccc([N+](=O)[O-])cc2n1Cc1ccc(Cl)c(Cl)c1`, 1640 nM.

`O=C(O)c1cc2c(F)cccc2n1Cc1ccc(Cl)c(Cl)c1` gave a 50% inhibitory concentration (IC50) of 99 nM. As for `O=C(O)c1cc2cccc(Cl)c2n1Cc1ccc(Cl)c(Cl)c1`, the figure is 340 nM.

On to `CS(=O)(=O)c1ccc2c(c1)cc(C(=O)O)n2Cc1ccc(Cl)c(Cl)c1`, for which the 50% inhibitory concentration (IC50) came out at 2200 nM. As for `N#Cc1c(C(=O)O)n(Cc2ccc(Cl)c(Cl)c2)c2ccccc12`, the figure is 300 nM; as for `O=C(O)c1cc2ccccc2n1Cc1ccc(Cl)cc1`, 1360 nM. As for `Cc1ccc(Cn2c(C(=O)O)cc3cc(Cl)ccc32)cc1C`, the figure is 220 nM; as for `COc1c(C(=O)O)n(Cc2ccc(Cl)c(Cl)c2)c2ccccc12`, 770 nM.

Consider `COc1cccc(Cn2c(C(=O)O)cc3cc(Cl)ccc32)c1`, for which the IC50 was found to be 3010 nM. `NC(=O)c1cc2ccccc2n1Cc1ccc(Cl)c(Cl)c1` gave an IC50 of 12700 nM. For `O=C(O)c1cc2ccc(F)cc2n1Cc1ccc(Cl)c(Cl)c1` the value was 90 nM; for `O=C(O)c1cc2ccccc2n1Cc1ccc(-c2ccccc2)cc1`, greater than 50000 nM. For `Nc1cccc2c1cc(C(=O)O)n2Cc1ccc(Cl)c(Cl)c1` the value was 230 nM. For `O=C(O)c1cc2cc(Cl)ccc2n1Cc1cccc([N+](=O)[O-])c1` the value was 650 nM. In the case of `O=C(O)c1cc2cccc(F)c2n1Cc1ccc(Cl)c(Cl)c1`, inhibition was half-maximal at 125 nM (IC50). This IC50 lies about 5.2-fold lower than the previous one. For `O=C(O)c1cc2cc(Cl)ccc2n1Cc1ccccc1Cl` the value was 1480 nM. The molecule `N#Cc1cccc(Cn2c(C(=O)O)cc3cc(Cl)ccc32)c1` showed an IC50 of 2000 nM. The IC50 values of the last two molecules are within 1.5-fold of each other.
